Measured values published in paper PMC10672942 (2023).

What was measured:
[1] = tested on: pApU (RNA, polymer) A/U; assay: UV melting at 260 nm; conditions: Na+ (sodium cacodylate 50 mM); pH 7.0; r = 0.3 [peptide]/[phosphate], polynucleotide 2.0 × 10^-5 M; free Tm 48.9 °C; per base
[2] = tested on: pApU (RNA, polymer) A/U; assay: fluorescence titration; conditions: Na+ (sodium cacodylate 50 mM); pH 7.0, 25 °C; Scatchard fit, fixed n = 0.3; per base
[3] = tested on: p(dAdT)2 (DNA, polymer) AT; assay: fluorescence titration; conditions: Na+ (sodium cacodylate 50 mM); pH 7.0, 25 °C; Scatchard fit, fixed n = 0.3; per base
[4] = tested on: p(dGdC)2 (DNA, polymer) GC; assay: fluorescence titration; conditions: Na+ (sodium cacodylate 50 mM); pH 7.0, 25 °C; Scatchard fit, fixed n = 0.3; per base
[5] = tested on: ds-dA10-dT10 (oligoAT10) (DNA, duplex) AAAAAAAAAA/TTTTTTTTTT; assay: HPLC after irradiation at 300 nm; conditions: ammonium acetate 100 mM; covalent; photoalkylation via quinone methide, 15 and 60 min, pH 7.0

ΔTm [1] [°C]	logKa [2]	logKa [3]	logKa [4]	binding [5]	Structure (SMILES)
1.4 ± 0.2	6.9	6.8	6.6	yes	CN(C)Cc1cc(C[C@H](NC(=O)[C@@H](N)CCCCNC(=O)c2ccc3ccc4cccc5ccc2c3c45)C(=O)OCc2ccccc2)ccc1O
1.9 ± 0.6	6.8	> 7	6.7	–	CN(C)Cc1cc(C[C@H](NC(=O)[C@@H](N)CNC(=O)c2ccc3ccc4cccc5ccc2c3c45)C(=O)OCc2ccccc2)ccc1O
